Reference: a melting point compilation (Tetko et al.; mined from patent text by program, amines drawn as free bases though some values may be those of a salt)

Point of comparison: `O=C1CNc2cccc(Oc3cc(-c4ccc(C(F)(F)F)cc4)ncn3)c2N1`, melting point 305 °C. Against it:
- CC(C)c1nccn1N=Cc1cc(C(C)(C)C)c(O)c(C(C)(C)C)c1 — lower, 159 to 160 °C
- CCc1nc2c(C)cc(C)nc2n1Cc1ccc(C(c2ccccc2)C(CO)c2nnn[nH]2)cc1 (stereo not given) — lower, 128 to 132 °C
- COC(=O)C1CC(=O)N(Cc2ccccc2)C1 (stereo not given) — lower, 63 to 65 °C
- CCOCC(=O)Nc1ccc(C2=NNC(=O)CC2C)cc1 (stereo not given) — lower, 195 to 197 °C
- CCn1c2ccccc2c2cc(C=C(c3ccccc3)c3ccccc3)ccc21 — lower, 145 to 146 °C
- COC(=O)C(=O)c1ccc(OCC#Cc2ccccc2)cc1 — lower, 57 to 59 °C
- CC(c1ccc(-c2ccccc2)c(F)c1)c1csc(NC(=O)C(N)=O)n1 (stereo not given) — lower, 179 to 180 °C
- COC(=O)c1ccccc1NC(=O)NCC1(c2ccccc2)CCCCC1 — lower, 91 to 94 °C
- O=C(O)CCC(=O)Oc1ccc(N(CCCl)CCCl)cc1 — lower, 98 to 100 °C
- Cc1ccc(CN2C(=O)[C@@H](NC(=O)Cc3ccccc3)[C@H]2CO)c(C)c1 (relative stereo) — lower, 152 to 154 °C
- CC1(CCCCn2c(=O)oc3ccccc32)Cn2cc([N+](=O)[O-])nc2O1 (stereo not given) — lower, 155 to 158 °C
- CCCCOCc1cc2ccccc2oc1=Nc1ccccc1 — lower, 86 to 88 °C
- CN1CCN(c2ccc(-c3cnc4c(c3)N(Cc3cc(Cl)ccc3C(F)(F)F)CCN4)cn2)CC1 — lower, 226 to 227 °C
- O=C(Nc1ccc2ccc(Cl)nc2n1)c1ccc(Cl)s1 — lower, 275 °C
- CC(=O)CC(=O)NCC1C(NC(=O)CC(C)=O)C(C)CC1(C)C (stereo not given) — lower, 94 to 114 °C
- CN1CCC(Cc2cc3cccnc3[nH]2)C1 (stereo not given) — lower, 96 to 97 °C
- NC(=O)c1ccc(F)c2c1OCC(N(CCCCc1c[nH]c3ccc(F)cc13)CC1CC1)C2 (stereo not given) — lower, 116 °C
- CSc1nc(Cl)c([N+](=O)[O-])c(N2CCS(=O)CC2)n1 — lower, 176 to 178 °C
- C[C@H]([C@](O)(Cn1cncn1)c1ccc(F)cc1F)S(=O)(=O)N1CCN(c2ccc(F)cc2)CC1 — lower, 128 to 130 °C
- CN(C)C(=O)Nc1ccc(Oc2ccc3sncc3c2)c(Cl)c1 — lower, 149 °C
- O=C(C=Cc1cccc(S(=O)(=O)N2CCN(c3ccccc3F)CC2)c1)NO — lower, 176 °C
- COc1cc(COc2nn(-c3ccccc3)cc2/C=C/c2csc(C)n2)ccc1OCc1nc(-c2ccc(CC(=O)O)cc2)oc1C — lower, 181 to 182 °C
- CC(C)(Cc1cc2cc(OCc3ccc4occc4n3)ccc2n1Cc1ccc(Cl)cc1)C(=O)O — lower, 157 °C
- CCOC(=O)c1cn(C)cc(-c2cccc(C(F)(F)F)c2)c1=O — lower, 151 to 152 °C
- O=C1Cc2cc3ccccc3cc2C(c2ccccc2Cl)N1 (stereo not given) — lower, 234 to 237 °C
- COc1cccc(N(CCN2CCC(C(=O)c3ccc(F)cc3)CC2)C(=O)c2cccc([N+](=O)[O-])c2)c1 — lower, 123 to 125 °C
- Clc1ccc2c(N3CCCC4CCCC(N5CCCC5)C43)ccnc2c1 (stereo not given) — lower, 136 to 138 °C
- Cc1cc(C(=O)N2Cc3cccn3Cc3ccccc32)cc(C)c1-n1c(C)ccc1C — lower, 104 to 106 °C
- CNC(=O)C(=NOC)c1cc(C)c(C)cc1C(ON)=C(C)c1cccc(C(F)(F)F)c1 — lower, 129 to 134 °C
- CC(=O)C(=Cc1cccc([N+](=O)[O-])c1)C(=O)OC(C)C(C)(C)NCCC(c1ccccc1)c1ccccc1 (stereo not given) — lower, 65 to 80 °C
- CCCCCCCCCCCc1cc2ccc(C(=O)OCCCC)cc2[nH]1 — lower, 73 to 76 °C
- c1ccc(-c2ncc(-c3nnn[nH]3)cn2)cc1 — lower, 237 °C
- Cc1cc2c(cc1O)C(C)(C)CC1(CC(C)(C)c3cc(OCC(N)=O)c(C)cc3O1)O2 (stereo not given) — lower, 220 to 221 °C
- COC(=O)C[C@H](Br)C(N)=O — lower, 82 to 84 °C
- Cc1ccc2cc(-c3cccc4ccccc34)ccc2n1 — lower, 111 °C
- CCOC(=O)c1nc2cc(F)ccc2nc1CC — lower, 42 to 45 °C
- Cc1oc(-c2ccc(Cl)cc2)cc1C(=O)Nc1cc(Cl)ccc1-c1nnn[nH]1 — lower, 247 to 255 °C
- COCc1cc(-c2csc(N)n2)on1 — lower, 137 to 138 °C
- CC(=O)Nc1nn(C)c2c1sc1cc(C)ccc12 — lower, 253 to 255 °C
- CS(=O)(=O)c1c(C(N)=NO)nn(-c2c(Cl)cc(C(F)(F)F)cc2Cl)c1N — lower, 132 to 134 °C
- CS/C(NC(=O)c1ccc(SC)cc1)=C(\C#N)C(=O)Nc1ccc(C)cc1 — lower, 173 to 175 °C
- Nc1ncnc2c1sc(=O)n2C1OC(CO)C(O)C1O (stereo not given) — lower, 248 to 250 °C
- COC(=O)CC(Nc1ccccc1OC)c1cc2ccccc2nc1Cl (stereo not given) — lower, 135 to 137 °C
- COc1cc(N2CCN(C)CC2)ccc1-c1nc2c(N[C@H]3[C@@H](C(N)=O)[C@@H]4C=C[C@H]3C4)c(Br)cnc2[nH]1 — lower, 185 to 195 °C
- CCC1=Nc2c(C)nn(C)c2C2=NCC(C)N12 (stereo not given) — lower, 105 to 107 °C
- COC(C)Cn1c(C)nc2cnc3ccccc3c21 (stereo not given) — lower, 55 to 57 °C
- O=C1CCC(N2C(=O)c3ccccc3C2=O)C(=O)N1CO (stereo not given) — lower, 165 °C
- O=C(c1ccc(O)c(F)c1)N(c1ccc(O)cc1)c1ccc(F)cc1 — lower, 110 to 112 °C
- CC(C)CNS(=O)(=O)c1ccc(N)c(C(=O)N2CCN(C)CC2)c1 — lower, 162 to 163 °C
- COc1cc(-c2ccc(C3C(CCC(O)c4ccc(F)cc4)C(=O)N3c3ccc(F)cc3)cc2)cc(OC)c1OC (stereo not given) — lower, 103 °C
- C=COC(=O)n1c(SCc2ccc(C)cn2)nc2cscc21 — lower, 78 to 80 °C
- CC(c1ncnc(Cl)c1F)C(O)(Cn1cncn1)c1ccc(F)cc1F (stereo not given) — lower, 92 °C
- CNS(=O)(=O)c1cn(C)c2cc(Cl)ccc2c1=O — lower, 220 to 223 °C
- CCc1c(Br)c(C#N)nn1C — lower, 72 to 74 °C
- Cc1ccc(S(=O)(=O)N2CCC(Sc3ccc(Cl)cc3)CC2)cc1 — lower, 112 to 114 °C
- Cc1ccc(Cl)cc1NC(=O)OC(C)(C)C — lower, 100 to 102 °C
- CC(=O)Nc1nc(OC(C)C)c2nc(Cl)ccc2n1 — lower, 244 °C
- COCCOc1ccccc1OS(=O)(=O)NC(=O)Nc1nc(OC)cc(OC)n1 — lower, 106 to 108 °C
- O=C(OCc1cc(F)nc(F)c1F)c1ccccc1 — lower, 73 to 76 °C
- Cn1c(Cl)cc(=O)n(C2CCCCC2)c1=O — lower, 132 to 133 °C
- CNC(=C[N+](=O)[O-])NCc1cccnc1 — lower, 159 to 160 °C
- CCOC(=O)c1ncn2c1CN=C(c1ccccc1F)c1cc(Cl)ccc1-2 — lower, 195 to 196 °C
- Nc1ccccc1SCC1=NOCN1 — lower, 108 °C
- COc1ccc(C=C2CCc3c2nc2ccc(C)cn2c3=O)cc1 — lower, 210 to 211 °C
- O=C(Cn1nc(Cl)nc1Cl)N1CCC(c2nc(C3=NOC(c4c(F)cccc4F)C3)cs2)CC1 (stereo not given) — lower, 147 to 150 °C
- N#Cc1ccc(-c2ccc(NCCCC3CCCCO3)cc2)cc1 (stereo not given) — lower, 111 to 113 °C
- Cc1ccc(-c2c3c(cc4ccc5c(c24)OCO5)C(=O)NC3=O)cc1 — lower, 297 to 299 °C
- COc1ccc(CNC2(Cc3ccccc3)CCC(=O)CC2)cc1 — lower, 122 to 124 °C
- CCC1CC(=O)C(C(=O)NS(=O)(=O)c2ccc(C)cc2)C(=O)C1 (stereo not given) — lower, 86 to 87 °C
- Nc1cc(C=O)ncc1F — lower, 133 to 135 °C
- Cc1cnc2ncc(-c3cccc(-c4ccccc4C#N)c3)n2n1 — lower, 211 to 216 °C
- CCCCCCCCCCCC(=O)Oc1ccc(-c2nc(-c3ccc(N(C)C)cc3)c(C)[nH]2)cc1OC — lower, 110 to 112 °C
- Cc1nc(N2CCOCC2)ccc1N1CCCn2c1nc1c(Cl)ccc(C(OC(F)F)C(F)(F)F)c12 (stereo not given) — lower, 191 to 193 °C
- CCC(O)CNC(=O)c1ccc(C(F)(F)F)c(N)c1 (stereo not given) — lower, 132 to 134 °C
- Cc1nccn1-c1ccc([N+](=O)[O-])cc1F — lower, 106 to 107 °C
- CC(=O)N(O)Cc1cccc([N+](=O)[O-])c1 — lower, 80 °C
- CC(=O)c1cccc(N2C(=O)CCSC2=S)c1 — lower, 197 to 199 °C
- COC(=O)C=C(Nc1cc2c(cc1OCc1ccccc1)N(C(=O)OC(C)(C)C)CC2COC(C)=O)C(F)(F)F (stereo not given) — lower, 114 to 115 °C
- Cc1cc(C2C=CCC2)c(S(C)(=O)=O)cc1C(=O)N=C(N)N (stereo not given) — lower, 212 to 214 °C
- Cc1cccc(NC(=O)NCC(=O)N(c2ccccc2)C(C(=O)OC(C)(C)C)c2ccc(Cl)c(Cl)c2)c1 (racemic) — lower, 176 °C
- O=C(NCc1ccccc1N1CCNCC1)c1cnc2c(-c3cccc(Cl)c3)cnn2c1 — lower, 185 to 188 °C
- Nc1nnc(-c2cccc(OCc3c(Cl)cccc3Cl)c2)c(N)n1 — lower, 190 to 192 °C
- CC(C)N1CCNC(=O)c2ccc(Nc3ncc(Cl)c(N[C@@H]4CCCC[C@H]4NS(C)(=O)=O)n3)cc21 — lower, 189 to 191 °C
- CC[C@H]1c2ccc(C#N)n2-c2cc(F)c(F)cc2N1S(=O)(=O)c1ccc(O)c(C)c1 — lower, 201 to 203 °C
- OCC1OC(c2ccc(Cl)c(Cc3cc4ccccc4s3)c2)C(O)C(O)C1O (stereo not given) — lower, 153 to 154 °C
- CCOC(=O)C1=C(N)NC(N)=C(C(=O)OCC)C1c1ccccc1F — lower, 128 to 130 °C
- O=C1CCc2c1cccc2-c1ccccc1 — lower, 85 to 90 °C
- CCOCc1nc2c(N)nc3cccnc3c2n1CCCCN(OC)C(=O)NC(C)C — lower, 146 to 147 °C
- COc1cccc(-n2ncc(C(=O)O)c2C(N)=O)c1 — lower, 213 to 216 °C
- O=[N+]([O-])c1cc(-c2nsc(C(F)(F)F)c2Cl)c(Cl)cc1Cl — lower, 104 to 106 °C
- Cc1cc(OC(F)F)ccc1NC(=O)c1cccc([N+](=O)[O-])c1C(=O)NC(C)C — lower, 148 to 149 °C
- CC(C)(CC(O)(Cn1ccc(=O)c2ccccc21)C(F)(F)F)c1cc(F)ccc1OC(F)F (stereo not given) — lower, 150 to 155 °C
- CC(C)Oc1ccc(N2CCCNCC2)cc1 — lower, 62 to 64 °C
- COc1ccc(N2CCN(c3ccncc3)CC2)cc1 — lower, 165 to 167 °C
- CCCOc1ccc(C(CC(=O)O)N2C(=O)c3ccccc3C2=O)cc1 (stereo not given) — lower, 142 to 144 °C
- CCCCCCCCCCCCCCCCCCOc1cc(OCCCBr)cc(C(=O)OCc2ccccc2)c1 — lower, 57 to 58 °C
- Cc1nccn1-c1nc(-c2ccc(Cl)cc2)c(CCC(=O)O)o1 — lower, 195 to 197 °C
- CC(C)(Oc1ccc(N)cc1)C(=O)O — lower, 214 to 216 °C
- CCCCc1nc2c(C#N)ncc(C)c2[nH]1 — lower, 197 to 198 °C
